Results published in the SangsterLogP compilation.

| Structure (SMILES) | logP |
| --- | --- |
| CCCCC(CC)C(=O)N1c2ccc(C)cc2C2CN(C)CCC21 (stereo not given) | 4.14 |
| Cc1ccc2c(c1)[C@H]1CN(C)CC[C@H]1N2 (relative stereo) | 1.6 |
| CCCCCCCCCCCCCC(=O)N1c2ccc(C)cc2[C@H]2CN(C)CC[C@H]21 (relative stereo) | 6.7 |
| CCCCCCCCCCCC(=O)N1c2ccc(C)cc2[C@H]2CN(C)CC[C@H]21 (relative stereo) | 5.66 |
| CCCCCCCCC(=O)N1c2ccc(C)cc2[C@H]2CN(C)CC[C@H]21 (relative stereo) | 4.41 |
| CCCCCCC(=O)N1c2ccc(C)cc2[C@H]2CN(C)CC[C@H]21 (relative stereo) | 3.57 |
| Cc1ccc2c(c1)[C@H]1CN(C)CC[C@H]1N2C(=O)C=Cc1ccccc1 (relative stereo) | 3.49 |
| CC(=O)N1c2ccc(C)cc2[C@H]2CN(C)CC[C@H]21 (relative stereo) | 1.25 |
| CCCCCCCCCCCCCCCC(=O)N1c2ccc(C)cc2[C@H]2CN(C)CC[C@H]21 (relative stereo) | 7.33 |
| CCCCCCCCCC(=O)N1c2ccc(C)cc2[C@H]2CN(C)CC[C@H]21 (relative stereo) | 4.83 |
